In brackets after ≈: the same amount, converted by molar mass.

The record followed here is ChEMBL document CHEMBL4619745, “Identification of 2-((2,3-dihydrobenzo[b][1,4]dioxin-6-yl)amino)-N-phenylpropanamides as a novel class of potent DprE1 inhibitors” (Bioorg Med Chem Lett, 2020).

Series [1] can be described thus: Lipophilicity, log D of the compound at pH 7.4. The class given is physicochemical. The following applies: buffer.
Series [2] can be described thus: Inhibition of Mycobacterium tuberculosis DprE1.
Series [3] deals with Mycobacterium tuberculosis. Nature of the series: Antimycobacterial activity against Mycobacterium tuberculosis H37Rv. The class given is functional.
Another series has as its system HepG2. The series can be described thus: Cytotoxicity against human HepG2 cells assessed as reduction in cell viability. It is filed as cell-based.

Turning to `CC(C(=O)Nc1ccc(Br)cc1)N(C)c1ccc2c(c1)OCCO2` (centres undefined), in series [1], the pH-dependent lipophilicity (logD) was 6.7. In series [2], 0.063 µM corresponded to half-maximal inhibition (IC50) and the negative logarithm of the IC50 (pIC50) came out at 7.2. This compound also registered an MIC in series [3] of 2.5 µM (≈ 0.978 µg/mL).
In turn, `CCC(Nc1ccc2c(c1)OCCO2)C(=O)Nc1ccc(Br)cc1` (centres undefined) came in with a logD in series [1] of 6. In series [2], this compound yielded a half-inhibitory concentration (IC50) of 3.98 µM and a negative logarithm of the IC50 (pIC50) of 5.4. In series [3], this compound gave a minimum inhibitory concentration (MIC) of 62 µM (≈ 24.3 µg/mL).
In series [2], `COc1cc(NC(C)C(=O)Nc2ccc(Br)cc2)cc(OC)c1` (centres undefined) gave an IC50 of 25.1 µM and a negative logarithm of the IC50 (pIC50) of 4.6.
With `CNC(=O)C(C)Nc1ccc2c(c1)OCCO2` (centres undefined), in series [2], the IC50 was determined as 31.6 µM and the negative-log IC50 (pIC50) came out at 4.5. Also, the minimal inhibitory concentration (MIC) in series [3] is greater than 125 µM.
In turn, `CC(Oc1ccc2c(c1)OCCO2)C(=O)Nc1ccc(Br)cc1` (centres undefined) displayed a pH-dependent lipophilicity (logD) in series [1] of 6.2. For the same compound, in series [2], the concentration for half-maximal inhibition (IC50) amounted to 0.2 µM and the pIC50 is 6.7. In series [3], this compound registered a minimal inhibitory concentration (MIC) of 12 µM (≈ 4.54 µg/mL).
As to `CNC(=O)c1ccc(NC(=O)C(C)Nc2ccc3c(c2)OCCO3)cc1` (centres undefined), the log distribution coefficient (logD) in series [1] came to 2.4. In series [2], this compound yielded a half-inhibitory concentration (IC50) greater than 100 µM and a negative logarithm of the IC50 (pIC50) of less than 4.
On to `CC(Nc1ccc2c(c1)OCCO2)C(=O)Nc1nc2ccccc2[nH]1` (centres undefined), for which the pH-dependent lipophilicity (logD) in series [1] turned out to be 3.7. Besides, in series [2], half-maximal inhibition (IC50) was put at 3.98 µM and the pIC50 is recorded as 5.4. Also, the MIC in series [3] stood at 62 µM (≈ 21 µg/mL).
For `CC(Nc1ccc2c(c1)OCCO2)C(=O)Nc1ccc(Br)cn1` (centres undefined), in that order: 5.4, 6.31 µM, 5.2 and 80 µM (≈ 30.3 µg/mL).
In series [2], `CC(Nc1ccc2c(c1)OCCO2)C(=O)Nc1ccc(C(F)(F)F)cc1` (centres undefined) yielded an IC50 of 0.126 µM and a pIC50 of 6.9.
`CC(Nc1cnc2c(c1)OCCO2)C(=O)Nc1ccc(Br)cc1` (centres undefined) yielded a logD in series [1] of 4. In series [2], this compound yielded an IC50 of 2 µM and a pIC50 of 5.7. Moreover, in series [3], the MIC came to 62 µM (≈ 23.5 µg/mL).
`CC(Nc1ccc2c(c1)OCCCO2)C(=O)Nc1ccc(Br)cc1` (centres undefined) showed a pH-dependent lipophilicity (logD) in series [1] of 5.7. In series [2], this compound showed an IC50 of 0.158 µM and a pIC50 of 6.8. In series [3], this compound yielded a minimum inhibitory concentration (MIC) of 4 µM (≈ 1.57 µg/mL).
Compound `CC(Nc1ccc2c(c1)OCCO2)C(=O)Nc1ccc2cc[nH]c2c1` (centres undefined) came in with a logD in series [1] of 4. In series [2], this compound registered a half-inhibitory concentration (IC50) of 0.794 µM and a pIC50 of 6.1. In series [3], this compound gave a minimum inhibitory concentration (MIC) of 32 µM (≈ 10.8 µg/mL).
In series [2], `CC(Nc1ccc2c(c1)OCO2)C(=O)Nc1ccc(Br)cc1` (centres undefined) gave an IC50 of 1 µM and a negative logarithm of the IC50 (pIC50) of 6.
In turn, `O=C1C(Cc2ccc3c(c2)OCCO3)CCCN1c1ccc(Br)cc1` (centres undefined) yielded a logD in series [1] of 5.8. Also, in series [2], it took 63.1 µM to reach half-maximal inhibition (IC50) and the pIC50 is 4.2. In series [3], this compound showed an MIC of 110 µM (≈ 44.3 µg/mL).
`CC(Nc1ccc2c(c1)OCCO2)C(=O)Nc1ccccc1` (centres undefined): the log distribution coefficient (logD) in series [1] stood at 4.3. In addition, in series [2], 63.1 µM corresponded to half-maximal inhibition (IC50) and the pIC50 stood at 4.2. The same compound yielded an MIC in series [3] greater than 125 µM.
`CC(C)C(Nc1ccc2c(c1)OCCO2)C(=O)Nc1ccc(Br)cc1` (centres undefined): the logD in series [1] is 6.6. Besides, in series [2], it took 39.8 µM to reach half-maximal inhibition (IC50) and the pIC50 worked out at 4.4. In addition, the MIC in series [3] is greater than 125 µM.
`C[C@@H](Nc1ccc2c(c1)OCCO2)C(=O)Nc1ccc(Br)cc1`: the logD in series [1] worked out at 5.5. Also, in series [2], inhibition was half-maximal at 0.251 µM (IC50) and the pIC50 came to 6.6. This compound yielded a minimum inhibitory concentration (MIC) in series [3] of 6.5 µM (≈ 2.45 µg/mL).
On to `CC(Nc1ccc2c(c1)NC(=O)CO2)C(=O)Nc1ccc(Br)cc1` (centres undefined), for which the logD in series [1] was 4.2. In addition, in series [2], the half-inhibitory concentration (IC50) was greater than 100 µM and the negative logarithm of the IC50 (pIC50) was less than 4.
With `Cc1ccc(NC(=O)C(C)Nc2ccc3c(c2)OCCO3)cc1` (centres undefined), the logD in series [1] turned out to be 4.8. In series [2], this compound showed a concentration for half-maximal inhibition (IC50) of 15.8 µM and a pIC50 of 4.8. In series [3], the MIC stood at 125 µM (≈ 39 µg/mL).
In turn, `CC(Nc1ccc2c(c1)NCCC2)C(=O)Nc1ccc(Br)cc1` (centres undefined) came in with a logD in series [1] of 6. Further, in series [2], the IC50 is 1.26 µM and the negative logarithm of the IC50 (pIC50) is given as 5.9. In series [3], 125 µM (≈ 46.8 µg/mL) was the least that counted as inhibitory (MIC).
For the compound `CC(Nc1ccc2c(c1)OCCO2)C(=O)Nc1ccc(Cl)cc1` (centres undefined), the logD in series [1] was 5.2. In series [2], this compound displayed an IC50 of 0.398 µM and a negative logarithm of the IC50 (pIC50) of 6.4. In series [3], this compound showed an MIC of 8 µM (≈ 2.66 µg/mL).
In series [1], `CC(Nc1ccc2c(c1)OCCO2)C(=O)Nc1ccc(C#N)cc1` (centres undefined) showed a pH-dependent lipophilicity (logD) of 4.2. Moreover, in series [2], the concentration for half-maximal inhibition (IC50) came to 2 µM and the negative-log IC50 (pIC50) was determined as 5.7. In series [3], this compound yielded a minimum inhibitory concentration (MIC) of 31 µM (≈ 10 µg/mL).
In series [2], `COc1cccc(NC(C)C(=O)Nc2ccc(Br)cc2)c1` (centres undefined) yielded a half-maximal inhibitory concentration (IC50) of 1.59 µM and a pIC50 of 5.8.
As for `CC(Cc1ccc2c(c1)OCCO2)C(=O)Nc1ccc(Br)cc1` (centres undefined), in series [2], the IC50 amounted to 2 µM and the negative-log IC50 (pIC50) is 5.7. The compound further gave a minimum inhibitory concentration (MIC) in series [3] of 110 µM (≈ 41.4 µg/mL).
In series [1], `CC(Nc1ccc2c(c1)OCCO2)C(=O)Nc1ccc(Br)nc1` (centres undefined) showed a logD of 4.2. In series [2], this compound gave an IC50 of 1.59 µM and a pIC50 of 5.8. The MIC in series [3] was found to be 32 µM (≈ 12.1 µg/mL).
For the compound `CC(Nc1ccc(Br)cc1)C(=O)Nc1ccc2c(c1)OCCO2` (centres undefined), the logD in series [1] was found to be 5.3. Moreover, in series [2], the IC50 was found to be 63.1 µM and the negative-log IC50 (pIC50) is listed as 4.2. In series [3], this compound displayed an MIC of 125 µM (≈ 47.2 µg/mL).
In series [1], `O=C1C(Cc2ccc3c(c2)OCCO3)CCN1c1ccc(Br)cc1` (centres undefined) yielded a logD of 6. In series [2], this compound displayed a 50% inhibitory concentration (IC50) of 31.6 µM and a pIC50 of 4.5. In series [3], the MIC is greater than 125 µM.
`CC(Nc1ccc2c(c1)NCCO2)C(=O)Nc1ccc(Br)cc1` (centres undefined) had a logD in series [1] of 4.8. In series [2], the IC50 came to 2.51 µM and the negative-log IC50 (pIC50) came out at 5.6. Moreover, in series [3], the minimum inhibitory concentration (MIC) is greater than 125 µM.
In series [1], `O=C(CNc1ccc2c(c1)OCCO2)Nc1ccc(Br)cc1` returned a logD of 5.1. In addition, in series [2], inhibition was half-maximal at 0.2 µM (IC50) and the pIC50 is reported as 6.7. In series [3], inhibition of growth (MIC) required 16 µM (≈ 5.81 µg/mL).
On to `CC(Nc1ccc2c(c1)CCCC2)C(=O)Nc1ccc(Br)cc1` (centres undefined), for which the log distribution coefficient (logD) in series [1] was determined as 7.7. In series [2], the IC50 came to 0.631 µM and the negative logarithm of the IC50 (pIC50) is on record as 6.2. Besides, the lowest concentration to inhibit growth in series [3] (MIC) was 16 µM (≈ 5.97 µg/mL).
`CC(Nc1ccc2c(c1)OCCO2)C(=O)Nc1ccc2cn[nH]c2c1` (centres undefined): the log distribution coefficient (logD) in series [1] is 3. In addition, in series [2], half-maximal inhibition (IC50) was put at 3.98 µM and the pIC50 was determined as 5.4. This compound gave a minimum inhibitory concentration (MIC) in series [3] of 31 µM (≈ 10.5 µg/mL).
With `CC(C)(Nc1ccc2c(c1)OCCO2)C(=O)Nc1ccc(Br)cc1`, the logD in series [1] came out at 6.3. In series [2], the IC50 stood at 0.126 µM and the negative logarithm of the IC50 (pIC50) is on record as 6.9. The compound further yielded a minimum inhibitory concentration (MIC) in series [3] of 4 µM (≈ 1.57 µg/mL).
`CC(Nc1ccc2c(c1)OCCO2)C(=O)Nc1ccc(-c2cnco2)cc1` (centres undefined) returned a logD in series [1] of 3.7. Besides, in series [2], the IC50 was greater than 100 µM and the pIC50 is less than 4.
As to `CC(Nc1ccc(Br)cc1)C(=O)Nc1ccc(Br)cc1` (centres undefined), in series [2], the midpoint of inhibition, the IC50, lay at 3.98 µM and the negative logarithm of the IC50 (pIC50) is 5.4.
Consider `CC(Nc1ccc2c(c1)OCCO2)C(=O)NC1CCCCC1` (centres undefined), for which the logD in series [1] was 4.4. Also, in series [2], the IC50 was found to be 39.8 µM and the pIC50 turned out to be 4.4. In series [3], this compound registered an MIC greater than 125 µM.
In the case of `CC(Nc1ccc2c(c1)OCCO2)C(=O)N(C)C` (centres undefined), the logD in series [1] amounted to 2.2. Moreover, in series [2], it took 39.8 µM to reach half-maximal inhibition (IC50) and the negative-log IC50 (pIC50) is on record as 4.4. Besides, the MIC in series [3] was greater than 125 µM.
For `CC(Nc1ccc2c(c1)OCCO2)C(=O)Nc1ccc(-c2cccnc2)cc1` (centres undefined), the pH-dependent lipophilicity (logD) in series [1] turned out to be 4.2. In series [2], this compound yielded an IC50 greater than 100 µM and a pIC50 of less than 4.
In series [1], `CC(Nc1ccc2c(c1)OCC(=O)N2)C(=O)Nc1ccc(Br)cc1` (centres undefined) displayed a log distribution coefficient (logD) of 3.9. For the same compound, in series [2], the IC50 was greater than 100 µM and the pIC50 was less than 4.
`C[C@H](Nc1ccc2c(c1)OCCO2)C(=O)Nc1ccc(Br)cc1`: the logD in series [1] was 5.5. Further, in series [2], half-maximal inhibition (IC50) was put at 1 µM and the negative logarithm of the IC50 (pIC50) was 6. The MIC in series [3] came out at 13 µM (≈ 4.9 µg/mL).
In the case of `COc1ccc(NC(C)C(=O)Nc2ccc(Br)cc2)cc1OC` (centres undefined), the log distribution coefficient (logD) in series [1] came out at 5.2. For the same compound, in series [2], half-maximal inhibition (IC50) was put at 2 µM and the negative-log IC50 (pIC50) worked out at 5.7. For the same compound, inhibition of growth in series [3] (MIC) required 40 µM (≈ 15.2 µg/mL).
`CC(Nc1ccc2c(c1)OCCO2)C(=O)Nc1ccc(Br)cc1` (racemic) had a log distribution coefficient (logD) in series [1] of 5.5. In series [2], this compound returned an IC50 of 0.063 µM and a negative-log IC50 (pIC50) of 7.2. For the same compound, the IC50 in the series on HepG2 was greater than 100 µM. Besides, the minimum inhibitory concentration (MIC) in series [3] was found to be 7.8 µM (≈ 2.94 µg/mL).
For `NNC(=O)c1ccncc1` [ISONIAZID], in series [3], the MIC is 1.8 µM (≈ 0.247 µg/mL).
